Where a name gives a salt, the structure may show the parent alone.
Tests used:
human PAI-1 [1] = molecular target: T1, human PAI-1 (Homo sapiens, UniProt P05121); test: Measurement of PAI-1 inhibitory activity of compound group 3 (t-PA, S-2288 chromogenic substrate; Table 4)
Protocol: Subsequently, tissue plasminogen activator (t-PA) (manufactured by American Diagnostica, Inc. (USA); the same applies hereinafter) adjusted to 0.3 pmol/μL was added thereto, and further incubated at 37° C. for 15 minutes.

human PAI-1 [2] = molecular target: T1, human PAI-1; test: Measurement of PAI-1 inhibitory activity of compound group 2 (t-PA, S-2288 chromogenic substrate); settings: PAI-1 activity of the system without compound after 30 minutes taken as 100%
Protocol: Subsequently, human-derived tissue plasminogen activator (t-PA) (manufactured by American Diagnostica, Inc. (USA); the same applies hereinafter) adjusted to 0.3 pmol/μL was added thereto, and the mixture was further incubated at 37° C. for 15 minutes.

human PAI-1 [3] = molecular target: T1, human PAI-1; test: Measurement of PAI-1 inhibitory activity of compound group 1 (t-PA, S-2288 chromogenic substrate); settings: read-out: PAI-1 activity %
Protocol: Subsequently, human-derived tissue plasminogen activator (t-PA) (manufactured by American Diagnostica, Inc. (USA); the same applies hereinafter) adjusted to 0.35 pmol/μL was added thereto, and the mixture was further incubated at 37° C. for 15 minutes.

human PAI-1 [4] = molecular target: T1, human PAI-1; test: Measurement of PAI-1 inhibitory activity of compound group 1 (t-PA, Spectrozyme t-PA chromogenic substrate); settings: for activity at 2.5 µM / activity at 10 µM: read-out: PAI-1 activity %; for PAI-1 activity %: PAI-1 activity of the system without compound after 120 minutes taken as 100%

T1 sequence (P05121 24-402): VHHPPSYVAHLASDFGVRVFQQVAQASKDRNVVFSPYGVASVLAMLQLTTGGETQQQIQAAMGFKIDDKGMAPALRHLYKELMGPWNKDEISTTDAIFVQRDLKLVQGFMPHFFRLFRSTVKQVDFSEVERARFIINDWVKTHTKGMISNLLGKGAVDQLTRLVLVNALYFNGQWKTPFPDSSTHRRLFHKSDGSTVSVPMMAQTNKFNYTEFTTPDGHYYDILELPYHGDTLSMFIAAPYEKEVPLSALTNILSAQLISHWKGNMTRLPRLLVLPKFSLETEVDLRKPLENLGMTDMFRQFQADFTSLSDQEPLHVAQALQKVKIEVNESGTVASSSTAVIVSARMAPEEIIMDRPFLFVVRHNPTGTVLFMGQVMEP

activity at 20 µM (human PAI-1 [3]) [%]	activity at 50 µM (human PAI-1 [3]) [%]	activity at 2.5 µM (human PAI-1 [4]) [%]	activity at 10 µM (human PAI-1 [4]) [%]	Compound	further results
		92.3	34.2	O=C(/C=C/c1cccc(-c2cccnc2)c1)Nc1ccc(Cl)cc1C(=O)O [Example 103, sodium 5-chloro-2-({(2E)-3-[3-(pyridin-3-yl)phenyl]prop-2-enoyl}amino)benzoate]	
		84.8	0.9	O=C(Nc1ccc(Cl)cc1C(=O)O)c1ccc(-c2ccc(F)cc2)s1 [Example 104, 5-chloro-2-({[5-(4-fluorophenyl)thiophen-2-yl]carbonyl}amino)benzoic acid]	
		89.9	23.5	O=C(Nc1ccc(Cl)cc1C(=O)O)c1ccc(-c2ccccc2)o1 [Example 105, 5-chloro-2-{[(5-phenylfuran-2-yl)carbonyl]amino}benzoic acid]	
		88.4	26.3	O=C(Nc1ccc(C23CC4CC(CC(C4)C2)C3)cc1)C(=O)Nc1ccc(Cl)cc1C(=O)O [Example 106, sodium 2-[({[4-(adamantan-1-yl)phenyl]amino}(oxo)acetyl)amino]-5-chlorobenzoate]	
		100	6.7	O=C(O)c1cc(Cl)ccc1NC(=O)c1cc(-c2ccccc2)nc2ccccc12 [Example 107, sodium 5-chloro-2-{[(2-phenylquinolin-4-yl)carbonyl]amino}benzoate]	
44	11	100	12.7	CC(C)(C)c1ccc(C(=O)Nc2ccc(Cl)cc2C(=O)O)cc1 [Known compound (1), 2-{[(4-tert-butylphenyl)carbonyl]amino}-5-chlorobenzoic acid, reference compound]	
41.8	8	70.7	0.2	O=C(Nc1ccc(Cl)cc1C(=O)O)c1ccc(-c2ccccc2)cc1 [Known compound (2), 2-[(biphenyl-4-ylcarbonyl)amino]-5-chlorobenzoic acid, reference compound]	
		36.3	0.3	O=C(COc1ccc(C2CCCCC2)cc1)Nc1ccc(Cl)cc1C(=O)O [Known compound (3), 5-chloro-2-{[(4-cyclohexylphenoxy)acetyl]amino} benzoic acid, reference compound]	
		79.6	8.1	O=C(Nc1ccc(Cl)cc1C(=O)O)c1ccc(C(=O)c2ccccc2)cc1 [Known compound (4), 5-chloro-2-{[(4-(phenylcarbonyl)phenyl]carbonyl}amino} benzoic acid, reference compound]	
		98.5	18.8	O=C(Nc1ccc(Cl)cc1C(=O)O)c1ccc2c(c1)CCCC2 [Known compound (5), 5-chloro-2-[(5,6,7,8-tetrahydronaphthalene-2-ylcarbonyl)amino] benzoic acid, reference compound]	
		85	37.4	O=C(O)c1cc(Cl)ccc1NC(=O)C(c1ccccc1)c1ccccc1 [Known compound (6), 5-chloro-2-[(diphenylacetyl)amino] benzoic acid, reference compound]	
		100	3.7	O=C(Nc1ccc(Cl)cc1C(=O)O)c1ccc(-n2cccc2)cc1 [Salt of Known compound (7), 5-chloro-2-({[4-(1H-pyrrol-1-yl)phenyl]carbonyl}amino)benzoic acid hydrochloride, reference compound]	

The remaining lines, values behind:

Compound	activity at 20 µM (human PAI-1 [3]) [%]	activity at 50 µM (human PAI-1 [3]) [%]	activity at 2.5 µM (human PAI-1 [4]) [%]	activity at 10 µM (human PAI-1 [4]) [%]	further results
5-chloro-2-({[4-(diphenylmethyl)piperazin-1-yl]carbonyl}amino)benzoic acid hydrochloride [Example 75]					PAI-1 activity % (human PAI-1 [1]; compound concentration 20 μM): 46.1%; PAI-1 activity % (human PAI-1 [2]; compound 20 μM): 91.3%; PAI-1 activity % (human PAI-1 [2]; compound 50 μM): 13.3%
5-chloro-2-({[4-(pyrrolidin-1-yl)phenyl]carbonyl}amino)benzoic acid hydrochloride [Example 83]					PAI-1 activity % (human PAI-1 [2]; compound 20 μM): 99.8%; PAI-1 activity % (human PAI-1 [2]; compound 50 μM): 77.8%
O=C(CCCNC(=O)c1cccc(-c2ccoc2)c1)Nc1ccc(Cl)cc1C(=O)O [Example 1, 5-chloro-2-{[4-({[3-(furan-3-yl)phenyl]carbonyl}amino)butanoyl]amino}benzoic acid]	95.5	48.9			
O=C(Cc1cccc(-c2ccoc2)c1)Nc1ccc(Cl)cc1C(=O)O [Example 3, 5-chloro-2-({[3-(furan-3-yl)phenyl]acetyl}amino)benzoic acid]	63.7	19.6			
Cc1sc(NC(=O)c2cccc(-c3ccoc3)c2)c(C(=O)O)c1-c1ccccc1 [Example 5, 2-({[3-(furan-3-yl)phenyl]carbonyl}amino)-5-methyl-4-phenylthiophene-3-carboxylic acid]	14.7	6.1	46.4	0.3	
O=C(O)c1cc(Cl)ccc1NC(=O)c1ccccc1-c1ccccc1 [Example 6, 2-[(biphenyl-2-ylcarbonyl)amino]-5-chlorobenzoic acid]	51.4	22.2			
O=C(Nc1ccc(Cl)cc1C(=O)O)c1ccc(-c2cccs2)cc1 [Example 7, 5-chloro-2-({[4-(thiophen-2-yl)phenyl]carbonyl}amino)benzoic acid]	54.2	7.4	99.8	0.4	
O=C(Nc1ccc(Cl)cc1C(=O)[O-])c1cccc(-c2ccncc2)c1.[Na+] [Example 8, sodium 5-chloro-2-({[3-(pyridin-4-yl)phenyl]carbonyl}amino)benzoate]			100	28.5	PAI-1 activity % (human PAI-1 [1]; compound concentration 20 μM): 95.6%; PAI-1 activity % (human PAI-1 [1]; compound concentration 50 μM): 12.4%; PAI-1 activity % (human PAI-1 [2]; compound 50 μM): 12.9%; PAI-1 activity % (human PAI-1 [2]; compound 100 μM): 9.3%
O=C(O)c1cc(Cl)ccc1NC(=O)[C@@H]1CCCN1C(=O)Cc1cccc(-c2ccoc2)c1 [Example 9, 5-chloro-2-[(1-{[3-(furan-3-yl)phenyl]acetyl}-L-prolyl)amino]benzoic acid]	98.1	53.2			
O=C(O)c1cc(Cl)ccc1NC(=O)[C@@H]1CCCN1C(=O)c1cccc(-c2ccoc2)c1 [Example 10, 5-chloro-2-[(-{[3-(furan-3-yl)phenyl]carbonyl}-L-prolyl)amino]benzoic acid]	73	38.3			
O=C(O)c1cc(Cl)ccc1NC(=O)C1CCCN(C(=O)Cc2cccc(-c3ccoc3)c2)C1 (stereo not shown) [Example 12, 5-chloro-2-{[(1-{[3-(furan-3-yl)phenyl]acetyl}piperidin-3-yl)carbonyl]amino}benzoic acid]	57.7	15.7			
Cn1cc(C(=O)C(=O)Nc2ccc(Cl)cc2C(=O)O)c2cc(-c3ccoc3)ccc21 [Example 14, 5-chloro-2-({[5-(furan-3-yl)-1-methyl-1H-indol-3-yl](oxo)acetyl}amino)benzoic acid]	22.1	12.9	87.4	4.3	
CC(C(=O)Nc1ccc(Cl)cc1C(=O)O)(c1ccccc1)c1ccccc1 [Example 39]					PAI-1 activity % (human PAI-1 [1]; compound concentration 20 μM): 64.3%; PAI-1 activity % (human PAI-1 [1]; compound concentration 50 μM): 6.9%; PAI-1 activity % (human PAI-1 [2]; compound 100 μM): 36.1%; PAI-1 activity % (human PAI-1 [4]; compound 2.5 μM): 88.6%; PAI-1 activity % (human PAI-1 [4]; compound 10 μM): 22.1%
O=C(COc1cccc(-c2ccccc2)c1)Nc1ccc(-c2ccccc2)cc1C(=O)O [Example 45]					PAI-1 activity % (human PAI-1 [1]; compound concentration 20 μM): 47.8%; PAI-1 activity % (human PAI-1 [1]; compound concentration 50 μM): 8.4%; PAI-1 activity % (human PAI-1 [2]; compound 20 μM): 79.6%; PAI-1 activity % (human PAI-1 [2]; compound 50 μM): 7.7%; PAI-1 activity % (human PAI-1 [4]; compound 2.5 μM): 76.9%; PAI-1 activity % (human PAI-1 [4]; compound 10 μM): 0.9%
O=C(COc1ccc(-c2ccccc2)cc1)Nc1ccc(-c2ccoc2)cc1C(=O)O [Example 46]					PAI-1 activity % (human PAI-1 [1]; compound concentration 20 μM): 83.9%; PAI-1 activity % (human PAI-1 [1]; compound concentration 50 μM): 47.3%; PAI-1 activity % (human PAI-1 [2]; compound 20 μM): 85.4%; PAI-1 activity % (human PAI-1 [2]; compound 50 μM): 8.4%; PAI-1 activity % (human PAI-1 [4]; compound 2.5 μM): 69.9%; PAI-1 activity % (human PAI-1 [4]; compound 10 μM): 0.4%
O=C(Nc1ccc(Cl)cc1C(=O)[O-])c1cccc(-c2cnc3ccccc3c2)c1.[Na+] [Example 63, sodium 5-chloro-2-({[3-(quinolin-3-yl)phenyl]carbonyl}amino)benzoate]			21.3	0.3	PAI-1 activity % (human PAI-1 [1]; compound concentration 20 μM): 64.3%; PAI-1 activity % (human PAI-1 [1]; compound concentration 50 μM): 10.6%; PAI-1 activity % (human PAI-1 [2]; compound 20 μM): 78.2%; PAI-1 activity % (human PAI-1 [2]; compound 50 μM): 21.4%
O=C(Nc1ccc(Cl)cc1C(=O)[O-])c1cccc(-c2cncc3ccccc23)c1.[Na+] [Example 64, sodium 5-chloro-2-({[3-(isoquinolin-4-yl)phenyl]carbonyl}amino)benzoate]			74.3	0.7	PAI-1 activity % (human PAI-1 [1]; compound concentration 20 μM): 71.6%; PAI-1 activity % (human PAI-1 [1]; compound concentration 50 μM): 19.2%; PAI-1 activity % (human PAI-1 [2]; compound 20 μM): 62.7%; PAI-1 activity % (human PAI-1 [2]; compound 50 μM): 7.5%
O=C(Nc1ccc(Cl)cc1C(=O)[O-])c1cccc(-c2ccc3ncccc3c2)c1.[Na+] [Example 65, sodium 5-chloro-2-({[3-(quinolin-6-yl)phenyl]carbonyl}amino)benzoate]			71.7	0.4	PAI-1 activity % (human PAI-1 [1]; compound concentration 20 μM): 86.0%; PAI-1 activity % (human PAI-1 [1]; compound concentration 50 μM): 25.4%; PAI-1 activity % (human PAI-1 [2]; compound 20 μM): 76.9%; PAI-1 activity % (human PAI-1 [2]; compound 50 μM): 10.8%
O=C(Nc1ccc(Cl)cc1-c1nnn[nH]1)c1cccc(-c2cccc3cccnc23)c1 [Example 102, N-[4-chloro-2-(1H-tetrazol-5-yl)phenyl]-3-(quinolin-8-yl)benzamide]			91.3	1.5	

From patent publication US10092537B2, “Use for PAI-1 inhibitor” (RENASCIENCE CO., LTD., priority 2013, dated 2018)
